Holding throughout (assay type): biochemical
Assay [1] addresses T1, Human plasmin (h plasmin) (Homo sapiens, UniProt P00747).
T1 construct: purchased Calbiochem
Put plainly: Inhibition of human plasmin (reference enzyme). The note with it: Chromozym PL substrate. As to the method: (§1) The inhibitory effect against the individual purified enzymes was determined in analogy to a previously disclosed method (Stürzebecher et al., J. Med. Chem., 40, 3091-3099 (1997)).
(§2) The release of p-nitroaniline (p-NA, the chromogenic product of the proteolytic activity), was determined by change in absorbance at 405 nm. The equilibrium rates were used to calculate the inhibitor/enzyme dissociation constant (Ki values) by parameter fitting in accordance with the rate equation for competitive inhibition using GraFit (version 4 from Erithacus). The results are reported as Ki values (nanomolar) in table 7 and are the average of at least three determinations.
(§3) Dissociation constants were calculated as described herein.

For assay [2], the target named is T2, Human Activated Protein C (h aPC) (Homo sapiens, UniProt P04070).
T2 construct: purchased Enzyme Research Laboratories
Put plainly: Inhibition of human activated protein C (reference enzyme). The note with it: Pefachrome PCa substrate. As to the method: as §1, §2, §3

Assay [3] concerns the target T3, Human urinary kallikrein (h uKK) (Homo sapiens, UniProt P06870).
T3 construct: purchased Lee Biosolutions
Put plainly: Inhibition of human urinary kallikrein (reference enzyme). The note with it: S-2266 substrate. As for the experimental part: as §1, §2, §3

Assay [4] concerns the target T4, Human urokinase type plasminogen activator (h u-PA) (Homo sapiens, UniProt P00749).
T4 construct: purchased MEDAC GmbH Urokinase HS medac
Put plainly: Inhibition of human urokinase type plasminogen activator (reference enzyme). The note with it: H-Glu-Gly-Arg-pNA substrate. As to the method:
as §1, §2, §3

In assay [5] the target is T5, human factor IIa (human alpha-thrombin) (Homo sapiens, UniProt P00734).
T5 construct: human alpha-thrombin from Enzyme Research Laboratories; purchased Enzyme Research Laboratories
Put plainly: Inhibition constants for human factor IIa, chromogenic substrate assay. To be noted: 25° C., Pefachrome tPA substrate, average of at least three determinations; read-out: Ki h FIIa. As for the experimental part:
as §1
(§4) 200 μL of TBS (0.05 M trishydroxymethylaminomethane; 0.154 M NaCl, 2% ethanol, pH 8.0)
as §2

Assay [6] concerns the target T6, Subcomponent "r" of Human Complement Component 1 (h C1r) (Homo sapiens, UniProt P00736).
T6 construct: purchased Calbiochem
T6 sequence (P00736 464-705 limits assumed): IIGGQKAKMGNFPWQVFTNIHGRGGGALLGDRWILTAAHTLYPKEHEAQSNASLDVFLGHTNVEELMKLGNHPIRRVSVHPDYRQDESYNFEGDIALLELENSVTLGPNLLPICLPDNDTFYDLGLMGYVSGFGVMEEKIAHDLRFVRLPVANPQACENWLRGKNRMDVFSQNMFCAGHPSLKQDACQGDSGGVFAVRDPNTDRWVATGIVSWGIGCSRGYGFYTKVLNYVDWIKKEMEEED
T6 sequence (P00736 18-463 partner limits assumed): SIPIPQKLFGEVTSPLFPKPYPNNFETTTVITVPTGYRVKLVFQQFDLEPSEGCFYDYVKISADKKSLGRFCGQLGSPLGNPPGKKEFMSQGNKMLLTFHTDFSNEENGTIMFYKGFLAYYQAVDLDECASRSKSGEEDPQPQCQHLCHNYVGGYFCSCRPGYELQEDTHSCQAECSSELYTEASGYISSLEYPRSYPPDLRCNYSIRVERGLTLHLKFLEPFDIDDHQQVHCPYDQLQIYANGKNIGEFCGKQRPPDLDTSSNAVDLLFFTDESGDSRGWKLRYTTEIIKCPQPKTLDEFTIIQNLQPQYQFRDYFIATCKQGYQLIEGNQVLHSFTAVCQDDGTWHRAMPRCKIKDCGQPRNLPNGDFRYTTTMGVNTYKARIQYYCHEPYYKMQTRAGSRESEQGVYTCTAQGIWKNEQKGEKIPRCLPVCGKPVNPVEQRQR
Put plainly: Inhibition of human C1r (reference enzyme). To be noted: S-2314 substrate; read-out: Ki h Clr. As to the method:
as §1, §2, §3

Assay [7] concerns the target T7, Human tissue-type plasminogen activator (h t-PA) (Homo sapiens, UniProt P00750).
T7 construct: purchased Boehringer Ingelheim Actilyse
Put plainly: Inhibition of human tissue-type plasminogen activator (reference enzyme). To be noted: Pefachrome tPA substrate; read-out: Ki h t-PA. As to the method: The equilibrium rates were used to calculate the inhibitor/enzyme dissociation constant (Ki values) by parameter fitting in accordance with the rate equation for competitive inhibition using GraFit (version 4 from Erithacus).
as §3

A further assay addresses T8, human Factor Xa (Homo sapiens, UniProt P00742).
T8 construct: human Factor Xa from Enzyme Research Laboratories; purchased Enzyme Research Laboratories
Put plainly: Inhibition constants for human factor Xa, chromogenic substrate assay. The note with it: 25° C., Pefachrome FXa substrate, average of at least three determinations; read-out: Ki h FXa. As for the experimental part: as §1, §4, §2

Assay [8] deals with T9, Subcomponent "s" of Human Complement Component 1 (h C1s) (Homo sapiens, UniProt P09871).
T9 construct: purchased Calbiochem
T9 sequence (P09871 438-688 limits assumed): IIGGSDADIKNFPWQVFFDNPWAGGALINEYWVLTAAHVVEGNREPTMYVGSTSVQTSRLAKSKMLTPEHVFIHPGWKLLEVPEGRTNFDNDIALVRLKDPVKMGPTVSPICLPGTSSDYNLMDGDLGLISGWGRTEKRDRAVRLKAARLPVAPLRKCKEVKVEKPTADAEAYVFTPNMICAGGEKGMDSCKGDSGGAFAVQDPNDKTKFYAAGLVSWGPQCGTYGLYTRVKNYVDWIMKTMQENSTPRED
T9 sequence (P09871 16-437 partner limits assumed): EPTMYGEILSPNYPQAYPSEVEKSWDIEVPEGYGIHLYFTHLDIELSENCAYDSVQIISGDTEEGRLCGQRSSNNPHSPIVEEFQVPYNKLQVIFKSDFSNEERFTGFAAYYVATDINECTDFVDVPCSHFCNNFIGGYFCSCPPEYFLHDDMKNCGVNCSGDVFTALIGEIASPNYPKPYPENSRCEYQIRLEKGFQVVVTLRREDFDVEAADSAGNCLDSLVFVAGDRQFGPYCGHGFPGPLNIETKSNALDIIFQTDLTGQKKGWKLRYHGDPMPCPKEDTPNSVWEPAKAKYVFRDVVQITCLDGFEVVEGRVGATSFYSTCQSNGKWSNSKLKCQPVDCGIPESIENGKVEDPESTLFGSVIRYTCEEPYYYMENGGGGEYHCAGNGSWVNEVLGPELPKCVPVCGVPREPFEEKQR
As to the kind of experiment: Inhibition of human C1s (reference enzyme). To be noted: S-2314 substrate; read-out: Ki h Cls. As to the method: as §1, §2, §3

For assay [9], the target named is T10, Human plasma kallikrein (h PK) (Homo sapiens, UniProt P03952).
T10 construct: purchased Enzyme Research Laboratories
Put plainly: Inhibition of human plasma kallikrein (reference enzyme). The note with it: S2302 substrate. As to the method:
as §1, §2, §3

Each structure is given as a SMILES string.

T8 sequence (P00742 235-488 limits assumed): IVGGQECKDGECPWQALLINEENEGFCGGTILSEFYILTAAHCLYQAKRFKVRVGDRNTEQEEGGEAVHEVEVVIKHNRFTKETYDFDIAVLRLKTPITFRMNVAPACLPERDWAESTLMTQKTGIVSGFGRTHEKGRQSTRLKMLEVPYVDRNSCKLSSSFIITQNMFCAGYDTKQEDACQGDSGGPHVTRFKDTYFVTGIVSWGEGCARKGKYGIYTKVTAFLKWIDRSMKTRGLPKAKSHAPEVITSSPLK
T8 sequence (P00742 41-179 partner limits assumed): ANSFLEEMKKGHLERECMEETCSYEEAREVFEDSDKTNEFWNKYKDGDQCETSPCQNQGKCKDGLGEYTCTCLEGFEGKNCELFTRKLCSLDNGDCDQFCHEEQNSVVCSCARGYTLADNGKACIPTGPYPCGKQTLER
T7 sequence (P00750 36-562): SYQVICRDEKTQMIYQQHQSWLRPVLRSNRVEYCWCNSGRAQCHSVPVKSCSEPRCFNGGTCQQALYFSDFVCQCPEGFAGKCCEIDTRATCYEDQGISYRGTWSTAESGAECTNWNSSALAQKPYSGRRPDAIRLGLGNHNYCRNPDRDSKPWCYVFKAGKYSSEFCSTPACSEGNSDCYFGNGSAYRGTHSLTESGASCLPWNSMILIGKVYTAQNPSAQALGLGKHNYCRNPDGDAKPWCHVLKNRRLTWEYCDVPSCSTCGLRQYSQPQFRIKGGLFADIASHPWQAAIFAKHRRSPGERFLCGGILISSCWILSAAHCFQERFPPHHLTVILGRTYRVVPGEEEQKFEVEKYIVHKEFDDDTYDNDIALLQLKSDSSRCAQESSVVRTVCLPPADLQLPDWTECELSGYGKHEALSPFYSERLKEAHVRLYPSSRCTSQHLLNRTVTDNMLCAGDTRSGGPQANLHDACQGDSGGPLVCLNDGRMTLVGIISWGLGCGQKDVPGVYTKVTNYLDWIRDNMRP
T2 sequence (P04070 212-450 limits assumed): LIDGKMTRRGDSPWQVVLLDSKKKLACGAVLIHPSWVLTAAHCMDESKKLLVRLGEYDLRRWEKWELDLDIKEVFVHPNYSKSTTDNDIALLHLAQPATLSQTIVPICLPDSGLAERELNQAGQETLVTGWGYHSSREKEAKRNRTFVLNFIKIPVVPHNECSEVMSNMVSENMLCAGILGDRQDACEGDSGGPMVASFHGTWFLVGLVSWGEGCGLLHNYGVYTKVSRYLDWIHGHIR
T2 sequence (P04070 43-197 partner limits assumed): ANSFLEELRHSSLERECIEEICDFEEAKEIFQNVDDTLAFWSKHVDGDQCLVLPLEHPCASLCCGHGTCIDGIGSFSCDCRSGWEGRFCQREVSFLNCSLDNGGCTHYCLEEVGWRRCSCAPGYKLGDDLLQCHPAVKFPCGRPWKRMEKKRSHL
T10 sequence (P03952 391-638 limits assumed): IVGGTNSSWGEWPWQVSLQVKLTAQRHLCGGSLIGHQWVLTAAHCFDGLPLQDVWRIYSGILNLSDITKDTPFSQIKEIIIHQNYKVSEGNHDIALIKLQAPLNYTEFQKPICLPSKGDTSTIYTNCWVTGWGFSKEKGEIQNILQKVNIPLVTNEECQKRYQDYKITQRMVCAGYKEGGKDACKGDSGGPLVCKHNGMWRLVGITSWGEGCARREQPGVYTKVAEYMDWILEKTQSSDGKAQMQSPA
T10 sequence (P03952 20-390 partner limits assumed): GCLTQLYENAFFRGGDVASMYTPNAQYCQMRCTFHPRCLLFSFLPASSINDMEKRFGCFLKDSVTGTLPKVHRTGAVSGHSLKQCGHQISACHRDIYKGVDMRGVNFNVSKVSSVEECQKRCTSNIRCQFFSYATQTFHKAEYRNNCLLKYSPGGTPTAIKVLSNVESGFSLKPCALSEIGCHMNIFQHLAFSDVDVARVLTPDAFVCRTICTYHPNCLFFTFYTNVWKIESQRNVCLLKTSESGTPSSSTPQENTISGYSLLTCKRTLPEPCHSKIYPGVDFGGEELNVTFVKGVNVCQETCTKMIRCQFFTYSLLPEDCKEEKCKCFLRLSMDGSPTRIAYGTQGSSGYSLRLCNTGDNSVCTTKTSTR
T1 sequence (P00747 581-810 limits assumed): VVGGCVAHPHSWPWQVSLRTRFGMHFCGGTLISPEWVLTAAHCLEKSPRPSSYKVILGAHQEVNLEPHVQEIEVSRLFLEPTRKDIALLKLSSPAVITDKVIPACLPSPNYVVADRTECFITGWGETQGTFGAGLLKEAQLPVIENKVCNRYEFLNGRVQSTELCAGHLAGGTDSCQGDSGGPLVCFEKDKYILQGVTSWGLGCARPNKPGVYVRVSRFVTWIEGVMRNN
T1 sequence (P00747 97-580 partner limits assumed): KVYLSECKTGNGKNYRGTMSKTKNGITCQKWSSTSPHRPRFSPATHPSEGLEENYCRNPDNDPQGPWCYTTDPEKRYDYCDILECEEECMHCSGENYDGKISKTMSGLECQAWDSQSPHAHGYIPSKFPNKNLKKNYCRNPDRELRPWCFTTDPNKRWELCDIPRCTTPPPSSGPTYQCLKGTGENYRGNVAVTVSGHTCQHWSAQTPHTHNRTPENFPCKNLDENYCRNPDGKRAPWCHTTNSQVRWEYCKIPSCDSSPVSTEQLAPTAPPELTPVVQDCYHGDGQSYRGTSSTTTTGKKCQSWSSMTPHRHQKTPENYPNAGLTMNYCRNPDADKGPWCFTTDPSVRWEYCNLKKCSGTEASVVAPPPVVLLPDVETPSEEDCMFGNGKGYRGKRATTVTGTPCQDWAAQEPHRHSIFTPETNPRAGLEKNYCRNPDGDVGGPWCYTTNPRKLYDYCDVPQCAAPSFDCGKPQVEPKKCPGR
T3 sequence (P06870 25-262): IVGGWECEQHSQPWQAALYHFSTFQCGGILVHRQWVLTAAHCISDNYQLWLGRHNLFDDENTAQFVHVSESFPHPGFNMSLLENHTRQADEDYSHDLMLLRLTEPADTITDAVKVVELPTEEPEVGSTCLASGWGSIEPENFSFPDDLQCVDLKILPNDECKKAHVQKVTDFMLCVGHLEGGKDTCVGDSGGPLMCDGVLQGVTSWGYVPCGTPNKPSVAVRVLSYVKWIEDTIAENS

With `NCc1ccc(Cl)cc1CNC(=O)[C@@H]1C[C@@H](N)CN1C(=O)[C@@H](CC(=O)N1CCNCC1)NS(=O)(=O)Cc1ccccc1` [Compound 2.5], the Ki in assay [1] is greater than 10 µM; in [2], greater than 20 µM; in assay [3] it was greater than 100 µM; in [4], greater than 100 µM; in [5], 0.018 µM; in [6], greater than 100 µM. Besides, the Ki in [7] was 9.27 µM; on human Factor Xa, 0.0028 µM; in assay [8], greater than 20 µM; in assay [9], 0.639 µM.

In the case of `NCc1ccc(Cl)cc1CNC(=O)[C@@H]1CCCN1C(=O)[C@@H](CCC(=O)N1CCOCC1)NC(=O)OCc1ccccc1` [Compound 2.33], the inhibition constant Ki is greater than 20 µM in assay [1]; greater than 30 µM in [2]; greater than 40 µM in assay [3]; greater than 50 µM in assay [4]; 0.0014 µM in [5]; greater than 100 µM in [6]. The Ki in assay [7] was greater than 20 µM; on human Factor Xa, 0.0088 µM; in assay [8] it was greater than 50 µM; in assay [9] it was 6.06 µM.

Regarding `NCc1ccc(Cl)cc1CNC(=O)[C@@H]1C[C@H](N)CN1C(=O)[C@@H](CCC(=O)N1CCOCC1)NS(=O)(=O)Cc1ccccc1` [Compound 2.24], the Ki is greater than 15 µM in assay [1]; greater than 200 µM in assay [2]; greater than 50 µM in assay [3]; greater than 100 µM in assay [4]; 0.00128 µM in assay [5]; greater than 50 µM in assay [6]. Besides, the Ki was greater than 15 µM in [7], 0.00019 µM on human Factor Xa, greater than 60 µM in assay [8] and 1.21 µM in [9].

As for `NCc1ccc(Cl)cc1CNC(=O)[C@@H]1CCCN1C(=O)[C@@H](CCC(=O)N1CCOCC1)NC(=O)Cc1ccccc1` [Compound 2.42], the inhibitory constant (Ki) in [1] is greater than 50 µM; in assay [2], greater than 10 µM; in assay [3], greater than 20 µM; in assay [4] it was greater than 100 µM; in assay [5], 0.088 µM; in assay [6], greater than 20 µM. Besides, the Ki in assay [7] is greater than 50 µM; at human Factor Xa, 0.965 µM; in [8] it was greater than 100 µM; in assay [9], greater than 50 µM.

For the molecule `NCc1ccc(Cl)cc1CNC(=O)[C@@H]1CCCN1C(=O)[C@@H](CC(=O)N1CC[S+]([O-])CC1)NS(=O)(=O)Cc1ccccc1` [Compound 2.38], the Ki in assay [2] is greater than 50 µM; in assay [4], greater than 60 µM; in [5], 0.0078 µM; in [6] it was greater than 200 µM; in [7], greater than 20 µM; on human Factor Xa it was 0.0055 µM. In addition, the results for the Ki in assay [8] and in assay [9] were greater than 80 µM and 0.614 µM, respectively.

For `CC(=O)N1CCN(C(=O)C[C@@H](NS(=O)(=O)Cc2ccccc2)C(=O)N2CCC[C@H]2C(=O)NCc2cc(Cl)ccc2CN)CC1` [Compound 2.40], the Ki was 9 µM in [1]; greater than 100 µM in [2]; greater than 50 µM in assay [4]; 0.0063 µM in [5]; greater than 50 µM in assay [6]; greater than 20 µM in [7]. In addition, the figures for the Ki (on human Factor Xa; in assay [8]; in assay [9]) were 0.0024 µM, greater than 80 µM and 0.478 µM, respectively.

As for `NCc1ccc(Cl)cc1CNC(=O)[C@@H]1CCCN1C(=O)[C@@H](CC(=O)N1CCSCC1)NS(=O)(=O)Cc1ccccc1` [Compound 2.37], the Ki was 6 µM in assay [1]; greater than 40 µM in assay [2]; greater than 20 µM in [4]; 0.00049 µM in assay [5]; greater than 200 µM in [6]; 19 µM in assay [7]. Also, the Ki on human Factor Xa was 0.00054 µM; in [8] it was greater than 80 µM; in assay [9], 0.413 µM.

As to `NCc1ccc(Cl)cc1CNC(=O)[C@@H]1CCCN1C(=O)[C@@H](CC(=O)N1CCOCC1)NS(=O)(=O)Cc1ccccc1` [Compound 2.36], the Ki was greater than 12 µM in assay [1]; greater than 100 µM in assay [2]; greater than 40 µM in [4]; 0.00034 µM in assay [5]; greater than 30 µM in [6]; 18 µM in [7]. Besides, the Ki on human Factor Xa was 0.00038 µM; in [8], greater than 100 µM; in [9], 0.565 µM.

Regarding `NCc1ccc(Cl)cc1CNC(=O)[C@@H]1CCCN1C(=O)[C@@H](CC(=O)Nc1cc[n+]([O-])cc1)NS(=O)(=O)Cc1ccccc1` [Compound 2.48, Bzls-D-Asp(1-oxido-4-amino-pyridine)-L-Pro-Amb(2-AMe-5-Cl)], the Ki in assay [2] was greater than 10 µM; in assay [3], greater than 100 µM; in [4], greater than 100 µM; in assay [5] it was 0.0025 µM; in assay [6] it was greater than 100 µM; in assay [7] it was 26.8 µM. Besides, the Ki is 0.017 µM at human Factor Xa, greater than 20 µM in assay [8] and 0.8 µM in assay [9].

For `NCc1ccc(Cl)cc1CNC(=O)[C@@H]1CCCN1C(=O)[C@@H](CCC(=O)O)NS(=O)(=O)Cc1ccccc1` [Compound 2.29], the Ki in assay [1] is greater than 15 µM; in [2], greater than 25 µM; in assay [4] it was greater than 100 µM; in assay [5], 0.0033 µM; in [6] it was greater than 10 µM; in assay [7], greater than 20 µM. The Ki at human Factor Xa is 0.093 µM; in [8], greater than 50 µM; in assay [9], greater than 20 µM.

As to `CC(=O)N1CCC(N(C)C(=O)CC[C@@H](NS(=O)(=O)Cc2ccccc2)C(=O)N2CCC[C@H]2C(=O)NCc2cc(Cl)ccc2CN)CC1` [Compound 2.28], the inhibitory constant (Ki) in assay [1] was 5.56 µM; in assay [2], greater than 50 µM; in assay [3] it was greater than 100 µM; in assay [4], greater than 20 µM; in assay [5] it was 0.00057 µM; in assay [6] it was greater than 100 µM. Further, the values for the Ki (in assay [7]; at human Factor Xa; in [8]) were greater than 100 µM, 0.036 µM and greater than 20 µM, respectively.

For the molecule `NCc1ccc(Cl)cc1CNC(=O)[C@@H]1CCCN1C(=O)[C@@H](CC(=O)N1CCS(=O)(=O)CC1)NS(=O)(=O)Cc1ccccc1` [Compound 2.39], the Ki was greater than 0.5 µM in assay [2], 0.0186 µM in assay [5] and 0.0154 µM at human Factor Xa.

The term Ki denotes a measure of affinity in units of concentration, obtained from inhibition or displacement.
